Measured values: article PMC10590419, “Structural and mechanistic insights into the inhibition of respiratory syncytial virus polymerase by a non-nucleoside inhibitor” (Communications Biology, 2023)
Where “and” joins values, the source holds several entries; their conditions need not be identical. Equal values may be shown once. Read-outs that look alike come from different tables or passages of the source.

Assays:
[1] = tested on: RSV A2 replicon in APC-126 cells; assay: RSV subgenomic replicon (minireplicon) assay, luciferase; type: cell-based; settings: human respiratory syncytial virus, APC-126, 72 h, read-out: Median EC50
Method: The RSV subgenomic replicon system was licensed from Apath (Apath, NY, USA)[49],[50]. The BHK-derived cell line (APC-126) containing the stable RSV A2 replicon was cultured in DMEM/Hams F-12 medium supplemented with 10% (v/v) FBS (Gibco), 1% (v/v) penicillin (10,000 units/mL) and streptomycin (10,000 µg/mL) solution (Gibco), 1% (v/v) MEM non-essential amino acids solution (Gibco), 5% (v/v) Tryptose Phosphate Broth solution (29.5 g/l) (Sigma-Aldrich) and 10 µg/ml of blasticidin solution (Invivogen). Cells were maintained at 37 °C in a humidified 5% CO2 atmosphere. 5000 cells were plated in 96-well clear plates (Corning) in 100 µl/well of medium. […] Cell viability (CC50 and CC90) was measured with a CellTiter-Glo cell proliferation assay (Promega, 100 µl/well of reagent). Results were expressed as EC50 and EC90 values as well as CC50 and CC90 values.

[2] = tested on: RSV B clinical isolates and laboratory strains; assay: Inhibition of RSV-B clinical isolates and laboratory strains, RT-qPCR, HeLa; type: cell-based; settings: human respiratory syncytial virus, 6 strains, read-out: Median EC50
Method: Then, 100 µL of a HeLa cell suspension (5 × 10^4 cells/mL) in culture medium was added to each well. […] After 3 days of incubation, the supernatant was removed from wells. Plates were washed twice with ice-cold PBS (100 µL/well), and were then sealed and stored overnight at −80 °C. Next, 50 µL of lysis solution supplemented with DNAse was added to the plates and incubated for 5 min followed by the addition of 5 µL stop solution (Ambion Cell-to-CT bulk lysis reagent buffer). […] Roche) for cDNA synthesis. Reverse transcription was performed at 42 °C for 30 min, followed by denaturation at 95 °C for 5 min. […] The reaction consisted of a denaturation step (95 °C for 600 s), 45 cycles of denaturation (95 °C for 15 s) and annealing/elongation (60 °C for 60 s), and a step of cooling (40 °C for 10 s).

RSV L+P complex = RSV L+P complex (Human respiratory syncytial virus A, UniProt P28887); type: biochemical; settings: for MTase activity, RNA+compound+RSV L+P, CPM: three technical replicates
RSV L+P complex, sequence (P03421 whole entry): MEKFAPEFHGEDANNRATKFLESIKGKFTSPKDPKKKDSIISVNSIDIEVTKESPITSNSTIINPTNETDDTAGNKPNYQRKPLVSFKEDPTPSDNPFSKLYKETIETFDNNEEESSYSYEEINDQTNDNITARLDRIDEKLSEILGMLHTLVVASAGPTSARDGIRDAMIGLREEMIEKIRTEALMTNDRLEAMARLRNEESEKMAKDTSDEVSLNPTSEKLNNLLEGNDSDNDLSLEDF
RSV L+P complex, sequence (P28887 whole entry): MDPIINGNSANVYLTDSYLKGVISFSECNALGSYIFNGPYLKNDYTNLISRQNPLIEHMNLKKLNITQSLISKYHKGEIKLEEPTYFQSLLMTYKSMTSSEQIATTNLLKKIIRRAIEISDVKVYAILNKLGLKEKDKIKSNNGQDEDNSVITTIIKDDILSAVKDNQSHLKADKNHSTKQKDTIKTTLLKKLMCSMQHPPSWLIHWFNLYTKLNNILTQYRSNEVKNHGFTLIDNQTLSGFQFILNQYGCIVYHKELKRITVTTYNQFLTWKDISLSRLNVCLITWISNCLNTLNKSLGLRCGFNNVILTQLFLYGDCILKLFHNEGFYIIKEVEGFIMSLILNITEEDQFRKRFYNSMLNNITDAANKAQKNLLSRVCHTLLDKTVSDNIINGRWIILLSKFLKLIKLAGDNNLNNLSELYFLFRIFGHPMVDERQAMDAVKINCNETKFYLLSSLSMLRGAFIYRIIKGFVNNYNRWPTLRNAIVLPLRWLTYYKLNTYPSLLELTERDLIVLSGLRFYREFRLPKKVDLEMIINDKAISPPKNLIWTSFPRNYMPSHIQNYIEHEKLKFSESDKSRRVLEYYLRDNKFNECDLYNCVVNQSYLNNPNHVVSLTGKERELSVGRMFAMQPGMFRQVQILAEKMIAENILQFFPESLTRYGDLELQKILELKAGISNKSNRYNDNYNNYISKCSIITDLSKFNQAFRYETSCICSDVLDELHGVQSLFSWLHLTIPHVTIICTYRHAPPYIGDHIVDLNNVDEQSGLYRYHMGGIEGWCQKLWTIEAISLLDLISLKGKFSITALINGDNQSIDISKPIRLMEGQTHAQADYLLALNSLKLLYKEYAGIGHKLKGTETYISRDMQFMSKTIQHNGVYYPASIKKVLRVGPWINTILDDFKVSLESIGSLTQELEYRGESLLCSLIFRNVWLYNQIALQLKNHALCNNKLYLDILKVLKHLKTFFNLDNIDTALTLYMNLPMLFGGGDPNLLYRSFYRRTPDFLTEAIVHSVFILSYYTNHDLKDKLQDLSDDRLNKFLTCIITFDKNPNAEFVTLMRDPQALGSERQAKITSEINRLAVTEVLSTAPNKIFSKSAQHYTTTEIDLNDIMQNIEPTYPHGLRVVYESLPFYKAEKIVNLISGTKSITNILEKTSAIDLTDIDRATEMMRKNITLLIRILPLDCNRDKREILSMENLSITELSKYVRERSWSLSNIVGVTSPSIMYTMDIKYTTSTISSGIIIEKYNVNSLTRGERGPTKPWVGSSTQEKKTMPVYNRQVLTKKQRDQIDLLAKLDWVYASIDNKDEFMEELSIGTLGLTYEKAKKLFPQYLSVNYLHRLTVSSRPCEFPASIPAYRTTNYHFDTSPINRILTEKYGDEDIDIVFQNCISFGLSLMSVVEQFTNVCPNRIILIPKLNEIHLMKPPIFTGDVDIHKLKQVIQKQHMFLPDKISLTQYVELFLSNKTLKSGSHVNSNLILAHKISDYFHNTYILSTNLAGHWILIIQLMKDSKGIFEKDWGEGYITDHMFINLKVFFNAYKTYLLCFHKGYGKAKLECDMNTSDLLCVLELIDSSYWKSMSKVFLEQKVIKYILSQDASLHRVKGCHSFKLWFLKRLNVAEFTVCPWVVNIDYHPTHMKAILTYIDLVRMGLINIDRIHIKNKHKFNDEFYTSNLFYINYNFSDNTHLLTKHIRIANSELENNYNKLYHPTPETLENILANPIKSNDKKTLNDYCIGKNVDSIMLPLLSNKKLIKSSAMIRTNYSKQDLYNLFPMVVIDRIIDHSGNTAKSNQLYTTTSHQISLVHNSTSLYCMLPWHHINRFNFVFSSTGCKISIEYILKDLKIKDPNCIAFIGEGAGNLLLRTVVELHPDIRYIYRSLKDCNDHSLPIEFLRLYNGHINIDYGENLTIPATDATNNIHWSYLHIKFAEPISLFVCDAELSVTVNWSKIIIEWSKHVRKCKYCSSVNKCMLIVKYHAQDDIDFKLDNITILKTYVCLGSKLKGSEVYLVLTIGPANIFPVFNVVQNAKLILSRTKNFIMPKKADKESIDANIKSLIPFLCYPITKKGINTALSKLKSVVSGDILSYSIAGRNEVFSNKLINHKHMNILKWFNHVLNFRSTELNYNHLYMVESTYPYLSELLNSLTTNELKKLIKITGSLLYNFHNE

COc1cc(C(=O)NC[C@](O)(c2cc(C(C)(C)O)c(F)c(-c3ccc(F)cc3)n2)C(F)(F)F)cc2cc(C)nnc12 [JNJ-8003]
EC50 [1]: 0.15 nM | EC50 [2]: 0.1 nM | MTase activity, RNA+compound+RSV L+P, CPM (RSV L+P complex; 50 uM): 23422 CPM and 23466 CPM and 23927 CPM | MTase activity, RNA+compound+RSV L+P, CPM (RSV L+P complex; 200 uM): 14871 CPM and 15721 CPM and 15503 CPM | impact on MTase activity (in words) (RSV L+P complex; full-length RSV L+P): no impact
